These results are taken from publication PMC12591169 (Advanced Science, 2025).

Entries after “also recorded” stand apart in the source; their conditions may differ. Non-standard residues stand in square brackets, D forms with d. pT = C[C@@H](OP(=O)(O)O)[C@H](N)C(=O)O

Test [1] deals with 14‐3‐3σ/ERα complex. Briefly: HDX‐MS of 14‐3‐3σ/ERα complex with and without FC‐A. The test is classed as binding. The procedure: (§1) Maximally deuterated samples were analyzed in triplicate.
(§2) Eluted peptides were directly infused into the mass spectrometer. Mobile phases were kept on ice.
(§3) (Thermo Fisher Scientific). […] Peptides with >20 residues were excluded from analysis.

The subject of test [2] is 14-3-3•LRRK2 complex. As to conditions: Fig. S3; protein partner occupies the FC-A binding site; ref PDB 5MY9; cited from earlier work. From the text:
(§4) Top: Insert of the amphipathic binding groove of 14-3-3 showing binding of FC-A (green) to the 14-3-3•ERα complex (pink) (PDB 4JDD). 14-3-3σ residues involved in binding FC-A and ERα are labelled in grey. […] For illustrati ...

Test [3] has as its system 14-3-3•ERα protein complex. To be noted: ref PDB 4JDD, cited from earlier work.
From the text: as §4

Test [4] deals with 14‐3‐3ζ /E6 oncoprotein. As to conditions: crystallography; cited from earlier work.
For test [5], the system named is 14‐3‐3/ERα. As to conditions: cited from earlier work. The source says: (§5) Overall, we have highlighted the usefulness of applying HDX‐MS to characterize molecular glues. […] This information was captured on minute‐hour HDX‐MS timescales; however, it is important to optimize HDX‐MS timescales when applying this method to study alternate protein systems. Indeed, shorter timescales might be preferential to capture the most valuable information.

In test [6] the test system is 14-3-3σ/ERα. To be noted: 14-3-3:ERα:FC-A 1:1:10, 14‐3‐3 5 µM, FC‐A 50 µM, 100 mM ammonium acetate (pH 6.8), 0.5% DMSO; 3 replicates. Here is the method: (§6) LC‐MS grade dimethyl sulfoxide (DMSO) was purchased from Fisher Scientific. Lypholized ERα581‐595 15mer peptide (Ac‐[…](pT)V‐COOH, Synpeptide Ltd) and lypholized LRRK2_928‐942 15mer peptide (Ac‐NLQRHSN(pS)LGPIFDH‐CONH2, Synpeptide Ltd) were diluted into 100 mM ammonium acetate to make peptide stocks of 1 mM and stored at ‐20 °C prior to use. Fusicoccin A (FC‐A) was provided as a gift from Yusuke Higuchi. It was obtained as a metabolite of wildtype Phomopsis amygdali and genetically modified Phomopsis amygdali Niigata‐2 as reported previously^[ [62] ^] FC‐A stocks were stored in 100% DMSO at […] at ‐80 °C. 14‐3‐3 was buffer exchanged into 100 mM ammonium acetate (pH 6.8) using a 10 kDa molecular weight cut‐off Amicon Ultra centrifugal filter (Merck Millipore) and stored at ‐80 °C prior to use. To form the 14‐3‐3/ERα complex, 14‐3‐3 (5 µM) was incubated with ERα (1:1 ratio) in the presence and absence of FC‐A (50 µM) (1:1:10 ratio) for 10 min on ice or at 10 min, 5 h or 24 h at room temperature to mimic HDX conditions (Figure S16, Supporting Information). To form the 14‐3‐3/LRRK2 complex, 14‐3‐3 (5 µM) was incubated with LRRK2 (1:2 ratio) in the presence and absence of FC‐A (50 µM) (1:2:10 ratio). 14‐3‐3 binding ratios were optimized to enable single and double‐bound complex formation. 14‐3‐3 protein complexes were directly infused into the mass spectrometer. […]

Test [7] has as its system 14‐3‐3/LRRK2 complex. Briefly: Native MS of 14‐3‐3σ/LRRK2 with FC‐A. The format is binding. To be noted: 14‐3‐3 5 µM, LRRK2 1:2 ratio, FC‐A 50 µM (1:2:10); Figure S14e; proposed explanation of HDX protection. The procedure:
as §6

Test [8] deals with 14‐3‐3/LRRK2 complex. To be noted: HDX‐MS, 14‐3‐3σ 100 µM, LRRK2 200 µM, FC‐A 1 mM.
Procedure: To form the 14‐3‐3/LRRK2 complex, 14‐3‐3σ in 25 mM HEPES, 200 mM NaCl, and 10 mM MgCl2 pH 8.0 (100 µM) was incubated with LRRK2 (200 µM) for 10 min on ice. To form the stabilized complex, 14‐3‐3σ (100 µM) was incubated with LRRK2 (200 µM) and FC‐A (1 mM) for 10 min on ice. Control incubations with 14‐3‐3σ (100 µM) in isolation were also performed. A final concentration of 10% DMSO was used for all experiments.
Deuterium labelling was carried out by diluting 14‐3‐3, 14‐3‐3/ERα, 14‐3‐3/ERα/FC‐A, 14‐3‐3/LRRK2 and 14‐3‐3/LRRK2/FC‐A tenfold with 100 mM ammonium acetate 99.9% D2O pD 7.2 and incubating for 10 min, 5 h, and 24 h at room temperature. The reaction was quenched by removal of 50 µL protein complex at each time‐point and adding 30 µL 4 M urea, 200 mM potassium phosphate buffer, pH 2.4, followed by flash freezing in liquid nitrogen and stored at ‐80 °C. […] Each time point was analysed in triplicate by LC‐MS with the exception of the 10‐min timepoint for LRRK2, analysed in duplicate. Non‐deuterated control samples were analysed in triplicate by LC‐MS for ERα complexes and duplicate for LRRK2 complexes.
Maximally deuterated samples were prepared by buffer exchanging 14‐3‐3 into 100 mM ammonium acetate 99.9% D2O pD 7.2 at 20 °C using a 10 kDa molecular weight cut‐off Amicon Ultra centrifugal filter (Merck Millipore). […] Maximally deuterated samples were analyzed in triplicate. […]
The subject of test [9] is 14-3-3σ. Kind of test: Native MS of 14‐3‐3σ with ERα. The format is binding. As to conditions: 14‐3‐3 5 µM, 1:1 ratio, 100 mM ammonium acetate (pH 6.8), 0.5% DMSO, absence of FC-A; 3 replicates. Here is the method: as §6
The target in test [10] is 14‐3‐3. To be noted: binary complex, without FC‐A; read-out: Kd for the binary complex 14‐3‐3/ERα; cited from earlier work.
From the text: as §5

The subject of test [11] is 14‐3‐3σ. Kind of test: HDX‐MS of 14‐3‐3σ with and without ERα or LRRK2 peptide. The test is classed as binding. As to conditions: for protection of 14‐3‐3σ from deuterium exchange upon peptide binding: 14‐3‐3σ 100 µM, ERα 100 µM or LRRK2 200 µM, diluted tenfold into 100 mM ammonium acetate 99.9% D2O pD 7.2, room temperature, 10 min, 5 h, 24 h, 10% DMSO, n = 3 (LRRK2 10 min: duplicate); for protection of 14‐3‐3σ from deuterium exchange at H8 upon peptide binding: H8, located distally from the binding groove. The procedure: as §1, §2, §3

In test [12] the test system is 14‐3‐3. As to conditions: cited from earlier work.
Test [13] has as its system 14‐3‐3. To be noted: FRET; cited from earlier work.
For test [14], the target named is T1, 14-3-3σ (UniProt P31947 1-248).
T1 construct: 14-3-3 protein sigma, full length
T1 sequence (looked up): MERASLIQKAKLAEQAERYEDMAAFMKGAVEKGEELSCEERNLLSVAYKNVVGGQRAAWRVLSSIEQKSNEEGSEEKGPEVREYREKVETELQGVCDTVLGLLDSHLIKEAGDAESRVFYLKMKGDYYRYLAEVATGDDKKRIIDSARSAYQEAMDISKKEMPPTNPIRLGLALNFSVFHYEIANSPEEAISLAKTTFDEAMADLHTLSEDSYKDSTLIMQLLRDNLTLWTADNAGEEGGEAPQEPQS
Briefly: HDX-MS; 14-3-3σ (100 µM) incubated with ERα peptide (100 µM) or LRRK2 peptide (200 µM), with or without FC-A (1 mM), 10 min on ice, in 25 mM HEPES, 200 mM NaCl, 10 mM MgCl2 pH 8.0, 10% DMSO; diluted tenfold in 100 mM ammonium acetate 99.9% D2O pD 7.2; labelled 10 min, 5 h and 24 h at room temperature; deuterium uptake read on 14-3-3σ peptides (pepsin/nepenthesin-2). As to conditions: both partners purified.

For the molecule `C=CC(C)(C)OC[C@H]1O[C@H](O[C@@H]2C3=C([C@H](C)COC(C)=O)C[C@H](O)[C@]3(C)/C=C3/[C@@H](COC)CC[C@H]3[C@@H](C)[C@H]2O)[C@H](O)[C@@H](OC(C)=O)[C@@H]1O` [FC‐A, Fusicoccin A], in test [1] (HDX‐MS, 14‐3‐3σ 100 µM, ERα 100 µM, FC‐A 1 mM, diluted tenfold into D2O buffer pD 7.2, room temperature, 10 min, 5 h, 24 h, 10% DMSO, n = 3), the “additional protection from deuterium exchange of 14‐3‐3σ/ERα upon FC‐A addition” value is “additional protection was observed in several peptides; also recorded: increased protection on H3, H7 and H9; also recorded: protection toward the N‐terminus of H3 and H5 between residues 37–45 and 117–122; also recorded: between residues 85–100 on H4 and residues 26–36 on H2; also recorded: additional protection from deuterium labelling”. Moreover, the “closure of H9 upon FC‐A addition to 14‐3‐3σ/ERα” value in test [1] (HDX‐MS, pD 7.2, room temperature) is “Evidence of this H9 closure was not observed”. The “peptides with main differences in HDX uptake, 14‐3‐3σ/ERα vs 14‐3‐3σ/ERα/FC‐A” value in test [1] (difference plot over all time points (10 min, 5 h, 24 h)) is “peptides 23–35, 45-51, 71-73, 92-114 and 120-122”. Also, the “stabilization of 14-3-3•LRRK2 complex by FC-A” value in test [2] is recorded as “does not stabilize”. Moreover, in test [3] (Fig. S3, PDB 4JDD), the “stabilization of 14-3-3•ERα complex by FC-A” value was “binds and stabilizes”. Moreover, the “14-3-3σ/ERα residues interacting with FC-A” value in test [3] (Fig. S3) is “N42, D215 and K122 interact with FC-A”. In addition, the “conformational change of 14‐3‐3ζ upon addition of FC‐A” value in [4] is on record as “closure of H9”. Besides, the “increase of 14‐3‐3/ERα affinity by the molecular glue” value in test [5] (FC‐A) was more than 10 fold. Moreover, in test [6], the “shift of binding equilibrium upon FC-A addition, native MS” value is on record as “the binding equilibrium is shifted to the fully stabilized ternary complex”. Besides, in test [7], the “interaction between FC‐A and the 14‐3‐3/LRRK2 complex” value is listed as “low affinity interaction”. For the same molecule, the “additional protection of 14‐3‐3/LRRK2 in regions of the LRRK2 binding interface upon FC‐A addition” value in [8] (diluted tenfold into D2O buffer pD 7.2, room temperature, 10% DMSO) is given as “No additional protection was observed in regions involved in the LRRK2 binding interface suggesting no stabilization effect”. The “level of protection of residues 37 to 45 (FC‐A binding region) in 14‐3‐3/LRRK2 upon FC‐A addition” value in test [8] (pD 7.2, room temperature) is listed as approximately 8%.

Consider “Ac‐KYYITGEAEGFPA(pT)V‐COOH (Ac-KYYITGEAEGFPA[pT]V-OH) [ERα, lypholized ERα581‐595 15mer peptide, phosphorylated mimetic of estrogen receptor α]”, for which the “ERα complexes with 14-3-3 observed by native MS” value in test [9] is “singly and doubly bound ERα is observed in complex”. Moreover, the Kd in test [5] (in the presence of FC‐A) is 100 ± 30 nM; in test [10], 1600 ± 300 nM. Besides, the “protection of 14‐3‐3σ from deuterium exchange upon peptide binding” value in test [11] was “Protection from deuterium labelling occurs; also recorded: peptides located in helices H3, H7 and H9 showed significant levels of protection after 24 h”. Besides, the “protection of 14‐3‐3σ from deuterium exchange at H8 upon peptide binding” value in test [11] (pD 7.2, room temperature) was “protection was also observed at H8”. In addition, the “dynamics and flexibility of 14‐3‐3 dimer interface (residues 85–100 on H4, 26–36 on H2) upon ERα binding” value in test [11] (pD 7.2, room temperature) was “a reduction in dynamics and protein flexibility”.

Consider “Ac‐NLQRHSN(pS)LGPIFDH‐CONH2 [LRRK2, lypholized LRRK2_928‐942 15mer peptide, phosphorylated mimetic of leucine‐rich repeat kinase 2]”, for which the “protection of 14‐3‐3σ from deuterium exchange upon peptide binding” value in test [11] is “identical areas of protection were observed upon LRRK2 binding; also recorded: the level of protection decreased relative to ERα”. Also, the “protection of 14‐3‐3σ from deuterium exchange at H8 upon peptide binding” value in test [11] (pD 7.2, room temperature) is given as “protection was also observed at H8”. In [12], the “binding affinity for 14‐3‐3 relative to ERα” value is “lower binding affinity”.

Regarding “tyrosine hydroxylase: protein partner titrated in a previous FRET study of 14‐3‐3 dimerization”, the “14‐3‐3 dimer stability upon titration” value in test [13] was “increased dimer stability”.

B1: LRRK2_(928-942)pS935 15mer peptide of leucine-rich repeat kinase 2 (peptide)
peptide: NLQRHSNSLGPIFDH
HELM: PEPTIDE1{[ac].N.L.Q.R.H.S.N.[O=C([C@H](COP(=O)(O)O)N[*:1])[*:2]].L.G.P.I.F.D.H.[am]}$$$$V2.0
SMILES: CC[C@H](C)[C@H](NC(=O)[C@@H]1CCCN1C(=O)CNC(=O)[C@H](CC(C)C)NC(=O)[C@H](COP(=O)(O)O)NC(=O)[C@H](CC(N)=O)NC(=O)[C@H](CO)NC(=O)[C@H](Cc1c[nH]cn1)NC(=O)[C@H](CCCNC(=N)N)NC(=O)[C@H](CCC(N)=O)NC(=O)[C@H](CC(C)C)NC(=O)[C@H](CC(N)=O)NC(C)=O)C(=O)N[C@@H](Cc1ccccc1)C(=O)N[C@@H](CC(=O)O)C(=O)N[C@@H](Cc1c[nH]cn1)C(N)=O
notes: leucine-rich repeat kinase 2, residues 928-942, phosphorylated at S935; source: synthetic peptide (Synpeptide Ltd)
Regarding B1, in test [14], the binding result is recorded as “binds”.

B2: ERα_(581-595)pT594 15mer peptide of estrogen receptor α (peptide)
peptide: Ac-KYYITGEAEGFPA[pT]V-OH
notes: estrogen receptor α, residues 581-595, phosphorylated at T594 ('mode 3' C-terminal motif); source: synthetic peptide (Synpeptide Ltd)
In the case of B2, the binding result in [14] was “binds”.
